14 compounds from publication PMC10148881, “Recognition of an Ala-rich C-degron by the E3 ligase Pirh2” (Nature Communications, 2023) can be followed below.

In one test the target is T1, Pirh2 (NTD + RING) (Homo sapiens, UniProt Q96PM5).
T1 construct: Pirh2 NTD + RING (residues 1–189); 8xHis-SUMO (N, cleaved yes); made in house; host or cells: E. coli BL21 (DE3)
T1 sequence (Q96PM5 1-189): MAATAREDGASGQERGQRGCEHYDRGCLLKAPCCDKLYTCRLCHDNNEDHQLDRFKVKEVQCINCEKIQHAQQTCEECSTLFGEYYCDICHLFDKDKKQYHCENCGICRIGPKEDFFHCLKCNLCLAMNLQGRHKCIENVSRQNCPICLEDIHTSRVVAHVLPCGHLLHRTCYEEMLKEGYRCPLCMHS
The experiment in a line: ITC of degron peptides with Pirh2 NTD + RING. The test is classed as binding. From the text: The DNA fragments corresponding to human full-length Pirh2 (residues 1–261), Pirh2 NTD + RING (residues 1–189), Pirh2 NTD (residues 1–137), Pirh2 RING + CTD (residues 138–261), Pirh2 RING (residues 138–189) and Pirh2 CTD (residues […]) were cloned by seamless cloning into the pET28-MKH8SUMO vector (Addgene Plasmid #79526), which contains an 8× His-SUMO tag followed by a Tobacco etch virus (TEV) cleavage site. The DNA fragment of Pirh2 (residues 15–191)-linker (GSGSG)-polyAla (AAAAAA) was cloned into the pGEX vector, which contains a GST tag followed by a TEV cleavage site. The recombinant plasmids were transformed into E. coli BL21 (DE3) and the expression of the target proteins was induced with 0.2 mM isopropyl β-D-1-thiogalactopyranoside (IPTG) supplemented with 100 μM ZnCl2 at 18 °C overnight. Cells were harvested by centrifugation and resuspended in lysis buffer (20 mM Tris-HCl pH 8.5, 400 mM NaCl, 5% v/v glycerol, 10 μM ZnCl2 and 2 mM β-mercaptoethanol). The cells were lysed by sonication on ice and the lysates were clarified by centrifugation at 14,000 rpm for 40 min at 4 °C. The lysate containing GST tagged Pirh2-linker-polyAla was collected to incubate with GST beads for 1 h, and nonspecifically bound proteins were washed out by lysis buffer. The GST tag was proteolytically cleaved by adding the TEV protease to the GST beads overnight at 4 °C and the TEV protease was removed by passing through the Ni‐NTA column. The other supernatants were collected to incubate with Ni-NTA beads for 1 h at 4 °C. Nonspecifically bound proteins were washed out of Ni-NTA beads by washing buffer (20 mM Tris-HCl pH 8.5, 400 mM NaCl and 25 mM imidazole pH 8.5) and the fusion proteins were eluted by elution buffer (20 mM Tris-HCl pH 8.5, 400 mM NaCl and 300 mM imidazole pH 8.5). The SUMO tag was cleaved by TEV protease with a molar ration of 1: 20 in dialysis buffer (20 mM Tris-HCl pH 8.5 and 300 mM NaCl) at 4 °C overnight. The samples were reloaded onto the Ni-NTA column to remove the cleaved SUMO tag and TEV protease. Finally, all of the acquired proteins were further purified by size exclusion chromatography (Superdex 200 Increase 10/300 GL, GE healthcare), which was pre-equilibrated with gel-filtration buffer (20 mM Tris-HCl pH 7.5, 150 mM NaCl, 10 μM ZnCl2 and 1 mM DTT). Purified proteins were concentrated and stored at −80 °C for later use. Expression and purification of the mutants were performed in the same way as wild-type proteins.
Isothermal titration calorimetry (ITC) measurements were performed at 16 °C using a MicroCal PEAQ-ITC instrument (Malvern Panalytical). Proteins and peptides were prepared in an ITC buffer (20 mM Tris-HCl pH 7.5, 150 mM NaCl and 10 μM Zn^2+). ITC experiments were performed by titrating 1.5 μL (with the exception of the first injection of 0.5 μL) of peptides (0.6–1.0 mM) into cell containing 180–220 μM proteins, with a spacing time of 90 s and a reference power of 10 μcal s^−1. The titration data were analyzed using the one-site binding model from MicroCal PEAQ-ITC Analysis Software version 1.30. All ITC assays were repeated at least three times independently with similar results.

In the next test the target is T2, full-length Pirh2 (Homo sapiens, UniProt Q96PM5).
T2 construct: human full-length Pirh2 (residues 1–261); 8xHis-SUMO (N, cleaved yes); made in house; host or cells: E. coli BL21 (DE3)
T2 sequence (Q96PM5 1-261): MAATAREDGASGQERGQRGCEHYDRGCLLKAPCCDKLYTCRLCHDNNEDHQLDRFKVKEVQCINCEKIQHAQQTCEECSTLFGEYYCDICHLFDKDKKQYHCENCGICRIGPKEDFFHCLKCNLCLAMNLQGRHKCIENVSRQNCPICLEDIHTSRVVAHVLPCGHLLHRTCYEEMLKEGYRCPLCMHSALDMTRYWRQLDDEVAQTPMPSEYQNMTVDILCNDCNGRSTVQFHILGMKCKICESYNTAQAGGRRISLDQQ
Briefly: ITC of degron peptide with full-length Pirh2. The following applies: 16 °C, 20 mM Tris-HCl pH 7.5, 150 mM NaCl, 10 μM Zn2+, one-site binding model, repeated at least three times. From the text:
(§1) The DNA fragments corresponding to human full-length Pirh2 (residues 1–261), Pirh2 NTD + RING (residues 1–189), Pirh2 NTD (residues 1–137), Pirh2 RING + CTD (residues 138–261), Pirh2 RING (residues 138–189) and Pirh2 CTD (residues 187–261) were cloned by seamless cloning into the pET28-MKH8SUMO vector (Addgene Plasmid #79526), which contains an 8× His-SUMO tag followed by a Tobacco etch virus (TEV) cleavage site. The DNA fragment of Pirh2 (residues 15–191)-linker (GSGSG)-polyAla (AAAAAA) was cloned into the pGEX vector, which contains a GST tag followed by a TEV cleavage site. The recombinant plasmids were transformed into E. coli BL21 (DE3) and the expression of the target proteins was induced with 0.2 mM isopropyl β-D-1-thiogalactopyranoside (IPTG) supplemented with 100 μM ZnCl2 at 18 °C overnight. Cells were harvested by centrifugation and resuspended in lysis buffer (20 mM Tris-HCl pH 8.5, 400 mM NaCl, 5% v/v glycerol, 10 μM ZnCl2 and 2 mM β-mercaptoethanol). The cells were lysed by sonication on ice and the lysates were clarified by centrifugation at 14,000 rpm for 40 min at 4 °C. […]
(§2) Isothermal titration calorimetry (ITC) measurements were performed at 16 °C using a MicroCal PEAQ-ITC instrument (Malvern Panalytical). […] The titration data were analyzed using the one-site binding model from MicroCal PEAQ-ITC Analysis Software version 1.30. […]

The target of another test is T3, Pirh2 NTD (Homo sapiens, UniProt Q96PM5).
T3 construct: Pirh2 NTD (residues 1–137); 8xHis-SUMO (N, cleaved yes); made in house; host or cells: E. coli BL21 (DE3)
T3 sequence (Q96PM5 1-137): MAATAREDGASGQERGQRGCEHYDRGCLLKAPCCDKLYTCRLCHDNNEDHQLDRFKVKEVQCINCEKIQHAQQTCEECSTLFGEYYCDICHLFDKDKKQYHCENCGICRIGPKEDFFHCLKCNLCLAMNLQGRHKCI
The experiment in a line: ITC of degron peptide with Pirh2 NTD. The settings on record: 16 °C, 20 mM Tris-HCl pH 7.5, 150 mM NaCl, 10 μM Zn2+, one-site binding model, repeated at least three times.
Text: as §1, §2

Another test addresses T4, Pirh2 R54A (Homo sapiens, UniProt Q96PM5, R54A).
T4 construct: Pirh2 NTD + RING (residues 1–189); 8xHis-SUMO (N, cleaved yes); made in house; host or cells: E. coli BL21 (DE3)
T4 sequence (Q96PM5 1-189 R54A): T1 sequence (Q96PM5 1-189) with R54A
The experiment in a line: ITC of Ala6/C-degron peptide with mutant Pirh2 R54A. The following applies: Fig. 4a. The test is classed as binding.
Text: as §1, §2

In another test the target is T5, Pirh2 D94A (Homo sapiens, UniProt Q96PM5, D94A).
T5 construct: Pirh2 NTD + RING (residues 1–189); 8xHis-SUMO (N, cleaved yes); made in house; host or cells: E. coli BL21 (DE3)
T5 sequence (Q96PM5 1-189 D94A): T1 sequence (Q96PM5 1-189) with D94A
The experiment in a line: ITC of Ala6/C-degron peptide with mutant Pirh2 D94A. The test is classed as binding. The settings on record: Fig. 4a.
Text: as §1, §2

In another test the target is T6, Pirh2 I107D (Homo sapiens, UniProt Q96PM5, I107D).
T6 construct: Pirh2 NTD + RING (residues 1–189); 8xHis-SUMO (N, cleaved yes); made in house; host or cells: E. coli BL21 (DE3)
T6 sequence (Q96PM5 1-189 I107D): T1 sequence (Q96PM5 1-189) with I107D
Briefly: ITC of Ala6/C-degron peptide with mutant Pirh2 I107D. The following applies: Fig. 4a. Type of test: binding.
Text: as §1, §2

A further test deals with T7, Pirh2 S155D (Homo sapiens, UniProt Q96PM5, S155D).
T7 construct: Pirh2 NTD + RING (residues 1–189); 8xHis-SUMO (N, cleaved yes); made in house; host or cells: E. coli BL21 (DE3)
T7 sequence (Q96PM5 1-189 S155D): T1 sequence (Q96PM5 1-189) with S155D
The experiment in a line: ITC of Ala6/C-degron peptide with mutant Pirh2 S155D. Type of test: binding. The settings on record: Fig. 4a.
Text: as §1, §2

Setting [1] is: ITC, 16 °C, 20 mM Tris-HCl pH 7.5, 150 mM NaCl, 10 μM Zn2+, one-site binding model, repeated at least three times, NB = no detectable binding under our experimental conditions, read-out: KD.

Residue numbers refer to the chain shown, from its start. Read-outs that look alike come from different tables or passages of the source. Ends that are not written are not given here. Peptide text beside a SMILES is read from it. Where only a bound is given, the exact number is not on record here.

A word on the Kd: it is the constant that tells how readily two partners part at equilibrium. `C[C@H](N)C(=O)N[C@@H](C)C(=O)N[C@@H](C)C(=O)N[C@@H](C)C(=O)N[C@@H](C)C(=O)N[C@@H](C)C(=O)O` [AAAAAA]: on Pirh2 (NTD + RING) (setting [1]), the Kd amounted to 0.9 µM.
Turning to `C[C@H](N)C(=O)N[C@@H](C)C(=O)N[C@@H](C)C(=O)N[C@@H](C)C(=O)N[C@@H](C)C(=O)O` [AAAAA], the Kd on Pirh2 (NTD + RING) (setting [1]) is 2.5 µM.
On to `C[C@H](N)C(=O)N[C@@H](C)C(=O)N[C@@H](C)C(=O)N[C@@H](C)C(=O)O` [AAAA] (H-AAAA-OH), for which the Kd at Pirh2 (NTD + RING) (setting [1]) was determined as 7.4 µM.
The same measure, in the same setting: with `C[C@H](N)C(=O)N[C@@H](C)C(=O)N[C@@H](C)C(=O)O` [AAA] the figure was greater than 100 µM.
For the compound YKTSAAAAAA [Ala6/C-degron], the Kd at full-length Pirh2 is 0.9 µM; at Pirh2 (NTD + RING) (setting [1]) it was 0.5 µM; at Pirh2 NTD, 5.5 µM; on Pirh2 R54A, greater than 100 µM; on Pirh2 D94A, 3 µM; on Pirh2 I107D, 9.1 µM. For the same compound, binding on Pirh2 S155D was characterised by a dissociation constant (Kd) of 4.5 µM.
As for YKTSAAIA, the Kd on Pirh2 (NTD + RING) (setting [1]) amounted to 13 µM.
As to YKTSAAVA, on Pirh2 (NTD + RING) (setting [1]), the Kd came out at 13 µM.
Same read-out and setting: the same measure for YKTSAKAA: 5.5 µM; for YKTSALAA: 2.8 µM.
On the same count and under the same terms, with YKTSAPAA the figure was 0.9 µM; with YKTSASAA, 3 µM; with YKTSATAAAA, 0.5 µM.
Turning to YKTSSAAA, the Kd at Pirh2 (NTD + RING) (setting [1]) was determined as 4.5 µM.
Regarding YKTSTAAAAA, the Kd at Pirh2 (NTD + RING) came to 0.5 µM.
